{"source": "patent US20250041282A1", "about": "“METHOD FOR TREATING INFLAMMATORY PULMONARY DISEASE” (FU JEN CATHOLIC UNIVERSITY, priority 2021, published 2025)", "key": {"RAW264.7 macrophages [1]": {"system": "RAW264.7 macrophages", "test": "Analysis of cell viability (MTT assay)", "format": "cell-based, mouse", "conditions": "FIG. 1B", "procedure": "RAW264.7 cells (mouse monocyte/macrophage-like cells) were purchased from the Bioresource Collection and Research Center (Hsinchu, Taiwan). The cells were maintained in DMEM (HyClone, Logan, UT, USA) containing 10% fetal bovine serum (HyClone), MEM nonessential amino acids (HyClone), […] sodium pyruvate (HyClone), and penicillin/streptomycin (HyClone). The cells were incubated at 37° C. in a humidified atmosphere of 5% CO2 and 95% air. RAW264.7 macrophages were pretreated with FJU-Cs (0 to 10 μM) as indicated for 30 min and were then stimulated with/without LPS (100 ng/ml) for 24 h. The remaining cells were evaluated by a 3-(4,5-dimethylthiazol-2-yl)-2,5-diphenyl tetrazolium bromide (MTT) assay. Cells containing formazan crystals were dissolved in DMSO (Merck, Darmstadt, Germany) and quantified at a wavelength of 595 nm using a spectrophotometer (BioTek Instruments, Inc. Winooski, Vermont, USA). Each experiment was repeated at least 3 times."}, "RAW264.7 macrophages [2]": {"system": "RAW264.7 macrophages", "test": "Morphology of LPS-stimulated macrophages", "format": "cell-based, mouse", "conditions": "LPS 24 hours; FIG. 1C", "procedure": "To compare the anti-inflammatory effects of the newly synthesized compound FJU-C28 (FIG. 1A) on LPS-activated murine macrophages to those of the parent compound FJU-C4, RAW264.7 macrophages were pretreated with various concentrations of FJU-Cs for 30 min and then stimulated with or without LPS for 24 hours. […] LPS stimulation changed the shape of macrophages, resulting in dendritic-like cells with multiple vacuoles in the cytoplasm, whereas the untreated cells were round and small. […] This effect was consistent with the findings of the cytotoxicity assay. […] In addition, FJU-C28 suppressed the expression of iNOS and COX2 at doses higher than 5 μM (FIG. 1D)."}, "[3]": {"system": "STAT3, smad3, TGF1β-induced alpha-SMA and fibronectin", "test": "Immunoblot comparison of FJU-C28 with Pirfenidone", "format": "cell-based", "conditions": "versus Pirfenidone; FIGS. 10A-10C", "procedure": "Further, a comparison between FJU-C28 and FDA-approved drug Pirfenidone for effects on STAT3 inhibition, smad3 activation, TGF1β-induced alpha-SMA and fibronectin expression are conducted. The results are shown in the quantitative immunoblot data in FIGS. 10A, 10B and 10C."}, "RAW264.7 macrophages [4]": {"system": "RAW264.7 macrophages", "test": "Western blotting of LPS-stimulated macrophage lysates", "format": "cell-based, mouse", "from_the_text": "In brief, cell lysate was separated by 10% SDS-PAGE and transferred to a PVDF membrane (Hybond™-P, Amersham, Piscataway, NJ, USA). The blots were probed with anti-p38 (Catalogue Number: 8690P), anti-p-p38 (Thr180/Tyr182; Catalogue Number: 4511P), anti-ERK44/42 (Catalogue Number: 4695P), anti-p-ERK44/42 (Thr202/Tyr204; Catalogue Number: 4370P), anti-JNK (Catalogue Number: 9258P), anti-p-JNK (Thr183/Tyr185; Catalogue Number: 4668P), anti-p65 (Catalogue Number: 8242S), anti-STAT3 (Catalogue Number: 12640S), anti-p-STAT3 (Tyr705; Catalogue Number: 9145S) and anti-RANTES (Catalogue Number: 2989S) antibodies were provided by Cell Signaling Technology, Inc. (Danvers, MA, USA). Anti-Lamin A/C (Catalogue Number: 101127) antibodies were obtained from GeneTex, Inc. (San Antonio, TX, USA). Anti-β-Actin (Catalogue Number: SC-47778) and anti-COX2 (Catalogue Number: SC-1746) antibody was obtained from Santa Cruz Biotechnology, Inc. (Dallas, Texas, USA). The anti-iNOS (Catalog Number: 610329) antibody was obtained from BD transduction Lab. (San Jose, CA, USA). Bound antibodies were visualized by […] staining (Western Lighting Plus ECL; PerkinElmer, Wellesley, MA, USA) with autoradiography using FUJI Medical X-ray film (Fuji Corporation, Kofu, Yamanashi, Japan) or a MultiGel-21 multifunctional imaging system (TOPBIO, New Taipei, Taiwan). The intensity of the western blot bands was quantified by ImageJ software. The quantitative immunoblot data were normalized to the internal control protein and are expressed as the relative ratio of the treatment group to the control. The data represent the mean±S.D. of at least three independent experiments."}, "[5]": {"conditions": "LPS-stimulated, at doses higher than 5 μM, FIG. 1D"}}}
{"compound": "C=CCC1CC(Sc2ccccc2)=CC(=O)N1C(=O)C=C", "note": "(stereo not shown) [FJU-C28]", "values": [{"measurement": "cytotoxicity", "setting": "RAW264.7 macrophages [1]; compared with 10 μM FJU-C4, 24 hours", "result": "less cytotoxicity than 10 μM FJU-C4"}, {"measurement": "LPS-induced cell death", "setting": "RAW264.7 macrophages [1]; pretreated 30 min, then LPS 24 hours", "result": "protected RAW264.7 macrophages from LPS-induced cell death"}, {"measurement": "LPS-induced changes in macrophage morphology", "setting": "RAW264.7 macrophages [2]", "result": "dramatically inhibited these changes in morphology in a concentration-dependent manner"}, {"measurement": "inhibition of STAT3", "setting": "[3]", "result": "more significant than that of Pirfenidone"}, {"measurement": "inhibition of TGF1β-induced alpha-SMA expression", "setting": "[3]", "result": "more significant than that of Pirfenidone"}, {"measurement": "inhibition of TGF1β-induced fibronectin expression", "setting": "[3]", "result": "more significant than that of Pirfenidone"}, {"measurement": "inhibition of smad3", "setting": "[3]", "result": "more significant than that of Pirfenidone"}, {"measurement": "LPS-induced level of p-ERK", "setting": "RAW264.7 macrophages [4]; 5 μM and 10 μM, FIG. 6A", "result": "dramatically inhibited"}, {"measurement": "LPS-induced level of p-JNK", "setting": "RAW264.7 macrophages [4]; 5 μM and 10 μM, FIG. 6A", "result": "dramatically inhibited"}, {"measurement": "LPS-induced level of p-p38", "setting": "RAW264.7 macrophages [4]; 5 μM and 10 μM, FIG. 6A", "result": "dramatically inhibited"}, {"measurement": "levels of STAT3 protein", "setting": "RAW264.7 macrophages [4]; FIG. 8", "result": "reducing the levels of STAT3 protein"}, {"measurement": "LPS-induced phosphorylation of STAT3", "setting": "RAW264.7 macrophages [4]; LPS-induced RAW264.7, FIG. 6D", "result": "concentration-dependently inhibited"}, {"measurement": "expression of COX2 (immunoblot)", "setting": "RAW264.7 macrophages [4]; [5]", "result": "suppressed"}, {"measurement": "expression of iNOS (immunoblot)", "setting": "RAW264.7 macrophages [4]; [5]", "result": "suppressed"}, {"measurement": "NF-κB (p65) in nuclear extract (translocation)", "setting": "RAW264.7 macrophages [4]; LPS-stimulated, increasing dose, FIG. 6C", "result": "nuclear NF-κB (p65) was decreased"}, {"measurement": "LPS-induced protein expression of RANTES (western blot)", "setting": "RAW264.7 macrophages [4]; at 6 hours, FIG. 4B", "result": "dramatically suppressed"}]}
